Like-named read-outs stand apart in the source and are kept apart here. Marks after values point to notes of the source that are not given here.
What was measured:
[1] = test system: obese mice fed high-fat diets; settings: CAT-supplemented high-fat diets
Method: Experiment 3 was conducted as described for Experiments 1 and 2 as indicated below except that determination of plasma lipid concentrations and quantitative real-time PCR were performed.
Serum HDL cholesterol concentrations were determined by using a commercial precipitation assay (Wako Diagnostics, Richmond, Va.) per the manufacturer's instructions.

C57BL6 mice [2] = settings: for White adipose tissue, g (abdominal) / Brown adipose tissue, g (interscapular) / Glucose (mg/dL), plasma fasting / Insulin (ng/mL), plasma fasting: C57BL6 mice, day 78; for White adipose tissue, g (abdominal): least squares mean
Source text: In Western countries the Metabolic Syndrome or Syndrome X (i.e., diabetes, obesity, cardiovascular disease, hypertension and hyperlipidemia) is on a steady rise. […] A total of forty-seven C57BL6 mice were used in experiment 1. Twenty-five mice were fed a control diet and […] mice were fed a diet supplemented with catalpic acid (0.6 g catalpic acid/100 g food). For the first 32 days of the experiment all diets contained 7% fat, 0.02% total cholesterol, and they obtained 14.5% of calories from fat by replacing catalpic acid with linoleic acid (wt/wt basis) in the control diet.
These diets are defined as regular diets and were formulated to be isocaloric between treatment groups. On day 32 of the experiment, twenty mice within each group were fed high fat diets containing 19.6% fat, 0.2% total cholesterol that obtained 40.1% of calories from fat by replacing catalpic acid with lard (wt/wt basis) in the control high fat diet.
The high fat diets were also formulated to be isocaloric between treatment groups. The remaining mice within each group (n=5) were fed the regular diets. On day 78 of the experiment, mice were killed, and blood was collected and immediately analyzed for fasting glucose concentrations by using the Accu-Check Instant Plus System (Roche Diagnostics Corporation, Indianapolis, Ind.) or stored for subsequent analysis of insulin and lipid concentrations in plasma. Abdominal white adipose tissue and interscapular brown adipose tissue were collected, weighed and stored at −80° C. for RNA analyses. Liver, lungs, kidneys, pancreas and heart were examined for macroscopic abnormalities (gross lesions), fixed in phosphate-buffered formalin (10%) and processed for histological evaluation. All specimens were generally labeled with the following information: 1) mouse number; 2) date collected; 3) experiment number; 4) type of solvent; and 5) tissue type.
Serum insulin concentrations were determined by using commercially available enzyme-linked immunosorbent assay kits (Linco Research, St. Charles, Mo.).

C57BL6 mice [3] = test system: C57BL6 mice
Method: A glucose tolerance test was conducted on day 78 of the experiment. Animals were fasted overnight (14 hours). Mice were injected intraperitoneally with D-glucose (1 g/kg body weight) and blood samples were collected via the tail vein prior to the injection (time 0) and at 15, 30 and 60 minutes following the injection.

db/db mice [4] = settings: 0-180 min after glucose injection, all time points, FIG. 2B
Method: (§1) Mice were weighed on a daily basis and examined for clinical signs of disease by blinded observers. Water and feed intake were assessed on a daily basis. Fasting (12 h) glucose and insulin concentrations were determined on days 0, 7, 15, 21 and 28, of the study. Briefly, blood was collected via the caudal vein and placed onto capillary blood collection tubes. Insulin concentrations were determined by using a commercially available insulin enzyme-linked immunosorbent assay (ELISA) (Linco Research, St Charles, Mo.) per manufacturer's instructions. Mice were administered a glucose tolerance test and euthanized by CO2 narcosis on day 28 of the study. For the glucose tolerance test, animals were fasted overnight (12 hours), injected intraperitoneally with D-glucose (2 g/kg body weight) and blood samples were collected via the caudal vein prior to the injection (time 0) and at 15, 30, 60, 90, 120 and 180 minutes following the injection to determine the effect of CAT on the kinetics of glucose normalization.

db/db mice [5] = test system: db/db mice
Method: Mice were purchased from Harlan (Indianapolis, Ind.). Following an acclimation period of 5 days on regular rodent chow they were fed purified, high fat diets that represented a modification of the AIN-93G rodent diet in which the nutritional requirements, including those for polyunsaturated fatty acids (PUFA), were met or exceeded.
Stock fatty acid solutions, e.g., soybean oil or catalpic acid were kept at −20° C. and nitrogen-purged every time that the bottles were opened. All the experimental diets contained the same amount of energy (isocaloric) and protein (isonitrogenous). To maintain the diets isocalorically, catalpic acid replaced soybean oil in the catalpic acid diet. We utilized male, db/db [BKS.Cg-+Lepr^db/+Lepr^db/OlaHsd (type 2 Diabetic)] mice (n=20) weighing 19.86 g on day 1 of the study. The db/db mice lack the long isoform of leptin receptor and represent a well-established model of type 2 Diabetes and are often utilized to determine the pre-clinical efficacy of antidiabetic drugs. Half of the mice were fed a control and the other half a catalpic acid-supplemented diet (1 g catalpa oil/100 g diet).
as §1

PPAR gamma = settings: C57BL/6J wild-type mice, 78 days, n = 10
Method: (§2) On day 28 or 78 of Experiments 1 and 2, visceral white adipose tissue (WAT) or pancreas samples were collected, stored in RNA later and frozen at −80° C. The dissection of intra-abdominal WAT was performed under magnification. RNA was isolated from WAT and pancreas specimens utilizing RNA isolation columns (Qiagen, Valencia, Calif.) per the manufacturer's instructions. RNA from the WAT was isolated using the Lipid Minikit (Qiagen). RNA was quantified using a μQuant microplate reader (Bio-TEK® Instruments, Inc., Winooski, Vt.). Briefly, total RNA (1 μg) from each sample was used to generate complementary DNA (cDNA) template using the iScript cDNA Synthesis Kit (Bio-Rad, Hercules, Calif.). The total reaction volume was 20 μl. The reaction was incubated as follows in a Tetrad Thermocycler (MJResearch, Waltham, Mass.): 5 minutes at 25° C., 30 minutes at 42° C., 5 minutes at 85° C., hold at 4° C. cDNA products were diluted 1:10 in diethylpyrocarbonate-treated water. Controls were also performed with no RNA template (no template) and omitting the reverse transcriptase enzyme (no RT).
(§3) The PCR primer pairs were designed based on previously published sequences (GenBank) using the Oligo 6 primer design software (Molecular Biology Insights, Cascade, Colo.). The PCR primer pair sequences, annealing temperatures, accession numbers and PCR product lengths are outlined in Table 5. […] Each gene amplicon was purified by using the MiniElute PCR Purification kit (Qiagen). The purified amplicon for each gene was quantified on an agarose gel using a DNA mass ladder. These purified amplicons were further used to optimize the real-time PCR conditions and to generate the standard curves in the real-time PCR assay. Primer concentrations and annealing temperatures were optimized for the iCycler iQ System (Bio-Rad) for each set of primers using the system's gradient protocol.
(§4) Messenger RNA (mRNA) expression of peroxisome proliferator-activated receptor (PPAR) gamma, PPAR alpha, and PPAR delta was determined in adipose tissue. […] Therefore, we also examined the expression of four PPAR alpha-responsive genes in WAT, including acyl-coenzyme A dehydrogenase (ACDH), stearoyl-coenzyme A desaturase (SCD1), enoyl-coenzyme A hydratase (ECH) and carnitine palmitoyl transferase-1 (Cpt-1).
(§5) Transcript expression was examined by real-time, quantitative PCR by using an iCycler iQ System and the iQ SYBR Green Supermix (Bio-Rad). Real-time PCR was used to measure the starting amount of nucleic acid by assaying each unknown starting quantity of cDNA on a 96-well plate. For each gene, the results were calculated as starting quantity of cDNA (picograms) per microgram of RNA.

[6] = test system: stearoyl-coenzyme A desaturase (SCD1); settings: n = 10
Method: as §2, §3, §4, §5

[7] = test system: enoyl-coenzyme A hydratase (ECH); settings: n = 10
Method: as §2, §3, §4, §5

PPAR alpha = settings: for PPAR alpha mRNA expression in white adipose tissue: n = 10
Method: as §2, §3, §4, §5

[8] = high fat diets, CAT-supplemented
[9] = regular diets, CAT-supplemented
[10] = C57BL/6J wild-type mice, 78 days

Method for PPAR delta: On day 28 or 78 of Experiments 1 and 2, visceral white adipose tissue (WAT) or pancreas samples were collected, stored in RNA later and frozen at −80° C. The dissection of intra-abdominal WAT was performed under magnification. RNA was isolated from WAT and pancreas specimens utilizing RNA isolation columns (Qiagen, Valencia, Calif.) per the manufacturer's instructions. RNA from the WAT was isolated using the Lipid Minikit (Qiagen). RNA was quantified using a μQuant microplate reader (Bio-TEK® Instruments, Inc., Winooski, Vt.). Briefly, total RNA (1 μg) from each sample was used to generate complementary DNA (cDNA) template using the iScript cDNA Synthesis Kit (Bio-Rad, Hercules, Calif.). The total reaction volume was 20 μl. […]
The PCR primer pairs were designed based on previously published sequences (GenBank) using the Oligo 6 primer design software (Molecular Biology Insights, Cascade, Colo.). […] The purified amplicon for each gene was quantified on an agarose gel using a DNA mass ladder. […]
Messenger RNA (mRNA) expression of peroxisome proliferator-activated receptor (PPAR) gamma, PPAR alpha, and PPAR delta was determined in adipose tissue. Based on the patterns of expression of the nuclear receptors in each tissue, the expression of a relevant panel of responsive genes was evaluated by quantitative real-time PCR. […]

## CCCC\C=C/C=C/C=C/CCCCCCCC(=O)O [CAT, catalpic acid]
[1]; mice, FIG. 6B
  plasma triglyceride concentrations versus control high-fat diet: lower
[1]; obese mice, FIG. 6A
  HDL cholesterol concentrations versus control high-fat diet: greater
C57BL6 mice [2]; high fat diets from day 32, CAT-supplemented
  White adipose tissue, g (abdominal): 0.607^b g
C57BL6 mice [2]; [8]
  Brown adipose tissue, g (interscapular): 0.105 g
  Glucose (mg/dL), plasma fasting: 205.43^b mg/dL
  Insulin (ng/mL), plasma fasting: 0.730^b ng/mL
C57BL6 mice [2]; [9]
  Brown adipose tissue, g (interscapular): 0.169 g
  Glucose (mg/dL), plasma fasting: 146.20^b mg/dL
  Insulin (ng/mL), plasma fasting: 0.960^b ng/mL
  White adipose tissue, g (abdominal): 0.751^b g
C57BL6 mice [2]; mice fed catalpic acid-supplemented diets, Experiment 1
  fatty liver or enlarged viscera: not observed
C57BL6 mice [3]; mice fed high fat diets, FIG. 1B
  glucose tolerance versus control: normalizes impaired glucose tolerance
C57BL6 mice [3]; mice fed regular diets, FIG. 1A
  glucose tolerance versus control: not different
PPAR delta; C57BL/6J wild-type mice, 78 days, n = 10
  PPAR delta mRNA expression in white adipose tissue: 0.007 picograms of starting cDNA per microgram of white adipose tissue total RNA
PPAR delta; pancreas of CAT-fed mice, P<0.04
  PPAR delta expression in the pancreas: 0.069
db/db mice [4]
  glucose normalizing ability versus control: greater
db/db mice [5]; day 28
  difference in WAT weight between groups attributable to catalpic acid: over 10%
db/db mice [5]; day 28, FIG. 5
  abdominal WAT weight versus control: significantly lower
db/db mice [5]; high fat diet, FIG. 4A
  body weight versus control: No differences
db/db mice [5]; high fat diet, FIG. 4B
  feed intake versus control: No differences
db/db mice [5]; high fat diet, day 28 (control 425 mg/dl)
  glucose concentrations: 290 mg/dL
db/db mice [5]; high fat diet, days 0-28, remained at basal levels, FIG. 3
  fasting plasma insulin concentrations: lower than 4 ng/ml
db/db mice [5]; high fat diet, days 14, 21 and 28, P<0.05, FIG. 2A
  fasting plasma glucose versus high fat control diet: lower
PPAR gamma
  PPAR gamma mRNA expression in white adipose tissue: 0.074 picograms of starting cDNA per microgram of white adipose tissue total RNA
[6]; [10]
  Stearoyl CoA Desaturase mRNA expression in white adipose tissue: 0.130^a picograms of starting cDNA per microgram of white adipose tissue total RNA
[6]; db/db mice, 28 days
  Stearoyl CoA Desaturase mRNA expression in white adipose tissue: 0.095^a picograms of starting cDNA per microgram of white adipose tissue total RNA
[7]; [10]
  Enoyl CoA Hydratase mRNA expression in white adipose tissue: 0.0039^a picograms of starting cDNA per microgram of white adipose tissue total RNA
[7]; db/db mice, 28 days
  Enoyl CoA Hydratase mRNA expression in white adipose tissue: 0.0024 picograms of starting cDNA per microgram of white adipose tissue total RNA
PPAR alpha; [10]
  PPAR alpha mRNA expression in white adipose tissue: 0.005^a picograms of starting cDNA per microgram of white adipose tissue total RNA
PPAR alpha; db/db mice, 28 days
  PPAR alpha mRNA expression in white adipose tissue: 0.0052^a picograms of starting cDNA per microgram of white adipose tissue total RNA
PPAR alpha; pancreas of CAT-fed mice
  pancreatic concentrations of PPAR alpha and its responsive genes: unchanged
